{"source": "patent US9821072B2", "about": "“Activated neurotensin molecules and the uses thereof” (priority 2014, dated 2017)", "key": {"[1]": {"test_system": "Swiss (CD-1) mice", "experiment": "Hypothermic response (rectal body temperature) after i.v. bolus in Swiss (CD-1) mice", "assay_type": "in vivo, mouse"}, "[2]": {"experiment": "In vitro blood stability in freshly collected mouse blood (LC-MS/MS)", "assay_type": "in vitro ADME, Swiss (CD-1) mouse", "details": "whole blood, 2 μM, 37° C."}, "[3]": {"biological_target": "T1, human neurotensin receptor type 1 (hNTR-1) (Homo sapiens, UniProt P30989)", "T1 construct": "purchased PerkinElmer; host or cells: CHO cells stably expressing human NTR-1 (membrane homogenates)", "T1 sequence (P30989 whole entry)": "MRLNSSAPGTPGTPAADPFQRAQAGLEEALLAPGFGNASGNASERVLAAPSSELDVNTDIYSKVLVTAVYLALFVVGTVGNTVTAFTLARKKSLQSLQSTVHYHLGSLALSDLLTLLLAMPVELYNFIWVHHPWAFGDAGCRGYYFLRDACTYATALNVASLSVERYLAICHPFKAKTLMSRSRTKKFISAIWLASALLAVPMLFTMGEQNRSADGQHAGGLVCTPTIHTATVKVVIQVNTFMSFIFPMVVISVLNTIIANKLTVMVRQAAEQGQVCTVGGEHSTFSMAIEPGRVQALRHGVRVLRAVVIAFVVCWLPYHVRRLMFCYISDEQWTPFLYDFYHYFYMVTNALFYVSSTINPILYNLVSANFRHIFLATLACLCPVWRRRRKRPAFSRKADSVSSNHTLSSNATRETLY", "experiment": "Competition binding assay with [3H]-neurotensin on human NTR-1 membranes (CHO cells)", "details": "read-out: NTR-1 binding affinity Ki, Human NTR-1"}, "[4]": {"test_system": "BBB (brain)", "parameters": "species or system C57Bl/6 mice", "details": "mouse, in vivo", "description": "(§1) Transport kinetics at the BBB and blood-retina barrier (BRB) of the conjugates of the invention was assessed using an in situ brain perfusion technique in adult male C57Bl/6 mice. Radiolabeled activated NT compounds were obtained either by coupling [3H]Tyr3-NT with the AG or by coupling a tritiated AG to NT molecules. NT was radiolabeled by catalytic dehalogenation of iodoTyr3-NT using tritium gas while AG was radiolabeled by coupling a tritiated propionyl succinimide ester to its N-terminus. The specific radioactivity (SRA) was typically in the range of 50 Ci/mmol. The total quantity of radioactivity prepared for each synthesis was generally between 100 and 1000 μCi.\n(§2) The in situ brain perfusion technique enables total control of the composition of the artificial perfusate in order to maintain the cells and vascularization of the brain under normal physiological and anatomical conditions within the animal, without the disrupting factor of systemic distribution. […]\n(§3) In situ brain perfusion of the radiolabeled compounds of the invention was performed during 120 s with a perfusate flow rate of 2 mL/min. The initial transport was expressed as the transfer coefficient Kin (relationship between distribution volume of the test compound, corrected for the vascular volume, and cerebral perfusion time)."}, "[5]": {"test_system": "blood-retina barrier (BRB), eye", "parameters": "species or system C57Bl/6 mice", "details": "mouse, in vivo", "description": "as §1, §2, §3"}, "[6]": {"test_system": "mice", "experiment": "Tolerance / toxicity after i.v. bolus in mice (MTD, LD50)", "assay_type": "in vivo, mouse", "description": "NT, which is similar to that measured for compound I and compound II. […] When injected at 20 mg/kg eq. NT in mice, compound XIV was still well-tolerated with no additional safety concerns. […] NT. The Maximal Tolerated Dose (MTD) was 40 mg/kg eq. […] Given that the MED was about 0.1 mg/kg eq. NT, this pharmacodynamic/toxicity profile constitutes an excellent safety prerequisite since i) it prevents potentially lethal overdose due to exacerbated pharmacological hypothermia, and ii) using the intravenous (bolus) mode of administration, the therapeutic window, which is expressed as the fold increase between the MED and MTD, is about 400, with 4-fold security between the dose level eliciting a maximal hypothermic response and that inducing mild/non-lethal toxicity."}}, "data": [{"smiles": "CCC(=O)N[C@@H]1CSSC[C@@H](C(=O)NCCOCCOCCOCCOCCOCCOCCC(=O)N[C@@H](CCCNC(=N)N)C(=O)N[C@@H](CCCNC(=N)N)C(=O)N2CCC[C@H]2C(=O)N[C@@H](Cc2ccc(O)cc2)C(=O)N[C@H](C(=O)N[C@@H](CC(C)C)C(=O)O)[C@@H](C)CC)NC(=O)CN(C)C(=O)[C@H](CCCNC(=N)N)NC(=O)[C@H](CC(C)C)NC(=O)[C@H](CCCNC(=N)N)NC(=O)[C@@H]2CCCCN2C(=O)[C@H](CCSC)NC1=O", "note": "[Compound XIV, Pr-cMPipRLRSarC-PEG6-RRPYIL-OH]", "values": [{"measurement": "Maximal decrease in body temperature", "setting": "[1]; 10 mg/kg eq. NT i.v. bolus, 60 min post-injection", "result": "−6.7", "unit": "°C"}, {"measurement": "hypothermic response at 20 mg/kg eq. NT versus 10 mg/kg eq. NT", "setting": "[1]; 20 mg/kg eq. NT, mice", "result": "No further decrease in body temperature"}, {"measurement": "Minimal Effective Dose (MED), hypothermic effect", "setting": "[1]; i.v. bolus", "result": "about 0.1 mg/kg eq. NT"}, {"measurement": "ED50, hypothermic effect", "setting": "[1]; i.v. bolus, dose-response", "result": 1.53, "unit": "mg/kg eq. NT"}, {"measurement": "half-life", "setting": "[2]", "result": 96, "unit": "min"}, {"measurement": "Ki", "setting": "[3]", "result": "0.22 ± 0.06", "unit": "nM"}, {"measurement": "transfer coefficient Kin in the brain", "setting": "[4]", "result": 0.000365, "unit": "mL/s/g"}, {"measurement": "transfer coefficient Kin in the eye", "setting": "[5]", "result": 0.00033, "unit": "mL/s/g"}, {"measurement": "tolerance", "setting": "[6]; 20 mg/kg eq. NT, mice", "result": "well-tolerated"}, {"measurement": "security between dose eliciting maximal hypothermic response and dose inducing mild/non-lethal toxicity", "setting": "[6]; i.v. bolus", "result": 4, "unit": "fold"}, {"measurement": "therapeutic window (fold increase between the MED and MTD)", "setting": "[6]; i.v. bolus", "result": "about 400 fold"}, {"measurement": "Maximal Tolerated Dose (MTD)", "setting": "[6]; i.v. bolus, mice", "result": 40, "unit": "mg/kg eq. NT"}, {"measurement": "LD50 (Lethal Dose, 50%)", "setting": "[6]; i.v. bolus, mice, not reached", "result": "> 40", "unit": "mg/kg eq. NT"}]}]}
